Consider one compound from patent publication EP1891940B1, “Intrasynovial formulations of stanozolol” (Acme Drugs S.r.l., priority 2006, dated 2008).

Data set [1] is described as follows: Solubility in water. Format: physicochemical. Conditions: crystalline substance. An excerpt: The formulations according to the invention of stanozolol in an aqueous carrier are therefore aqueous suspensions, and it is necessary to prevent the suspended crystals of the drug from causing mechanical lesions such as abrasions and erosions despite the pressures and friction generated by the movement of the joint on the surfaces of the cartilage and synovial membrane.

The nature of data set [2]: Persistence of stanozolol in the joint / synovial fluid after intrasynovial injection. Format: in vivo, horses and humans. An excerpt: A single intrasynovial injection of said formulations allows the stanozolol to be brought up to and maintained at pharmacologically active concentrations in the joint for 6-7 days, a period which is long enough to produce evident clinical benefits and fully compatible with long-term treatments.
Two examples of formulation of a typical preparation containing stanozolol administrable by the intrasynovial route to horses and humans, which remains in the synovial fluid for 5-7 days, one set out below: • a) Active ingredient: micronised stanozolol (having a prevalent population of particles with a diameter of less than 20 µm) 5 mg; Water for injectables q.s. to 1 ml. • b) Active ingredient: Micronised Stanozolol: (having a prevalent population of particles with diameter of less than 20 µm) 5 mg/ml

Regarding `C[C@]12Cc3c[nH]nc3C[C@@H]1CC[C@@H]1[C@@H]2CC[C@@]2(C)[C@H]1CC[C@]2(C)O` [stanozolol], the solubility in water result in data set [1] is listed as “insoluble in water”. Also, the “maintained at pharmacologically active concentrations in the joint” value in data set [2] (single intrasynovial injection of the micronised aqueous suspension formulations) was 6-7 days. In addition, the “remains in the synovial fluid” value in data set [2] (typical preparation with micronised stanozolol 5 mg/ml, intrasynovial route, horses and humans) fell in the range of 5 to 7 days.
